Measurements taken from ChEMBL document CHEMBL5512632, “Unlocking the potential of 1,4-naphthoquinones: A comprehensive review of their anticancer properties” (Eur J Med Chem, 2024).

Tests used:
[1] = Cytotoxicity against human NCI-H358M cells incubated for 72 hrs by MTT assay; format: functional, cell-based
OVCAR-8 = assay: Cytotoxicity against human OVCAR-8 cells incubated for 72 hrs by MTT assay; format: functional, cell-based; details: OVCAR-8, 72 h
PC-3M = assay: Cytotoxicity against human PC-3M cells incubated for 72 hrs by MTT assay; format: functional, cell-based
[2] = Antiproliferative activity against human A875 cells assessed as inhibition of cell growth incubated for 24 hrs by MTT reagent based microplate reader assay; format: functional; details: A875, 24 h
AGS = assay: Cytotoxicity against human AGS cells incubated for 72 hrs by MTT assay; format: functional, cell-based
SK-MES-1 = assay: Cytotoxicity against human SK-MES-1 cells incubated for 72 hrs by MTT assay; format: functional, cell-based; details: SK-MES-1, 72 h
J82 = assay: Cytotoxicity against human J82 cells incubated for 72 hrs by MTT assay; format: functional, cell-based; details: J82, 72 h
A549 = assay: Cytotoxicity against human A549 cells incubated for 72 hrs by MTT reagent based spectrophotometric analysis; format: functional, cell-based; details: A549, 72 h
PC-3 = assay: Cytotoxicity against human PC-3 cells incubated for 72 hrs by MTT reagent based spectrophotometric analysis; format: functional, cell-based; details: PC-3, 72 h
A2780 = assay: Cytotoxicity against human A2780 cells incubated for 72 hrs by MTT reagent based spectrophotometric analysis; format: functional, cell-based; details: A2780, 72 h
HL-60 [3] = assay: Cytotoxicity against human HL-60 cells incubated for 72 hrs by MTT reagent based spectrophotometric analysis; format: functional, cell-based; details: HL-60, 72 h
HL-60 [4] = assay: Cytotoxicity against human HL-60 cells assessed as inhibition of cell growth incubated upto 72 hrs by MTT assay; format: functional, cell-based; details: HL-60, 72 h
HT-29 = assay: Cytotoxicity against human HT-29 cells assessed as inhibition of cell growth incubated upto 72 hrs by MTT assay; format: functional, cell-based; details: HT-29, 72 h
HepG2 [5] = assay: Cytotoxicity against human HepG2 cells assessed as inhibition of cell growth incubated upto 72 hrs by MTT assay; format: functional, cell-based; details: HepG2, 72 h
MCF7 [6] = assay: Cytotoxicity against human MCF7 cells assessed as inhibition of cell growth incubated upto 72 hrs by MTT assay; format: functional, cell-based; details: MCF7, 72 h
SW480 = assay: Cytotoxicity against human SW480 cells assessed as inhibition of cell growth incubated upto 72 hrs by MTT assay; format: functional, cell-based; details: SW480, 72 h
RPMI-8226 = assay: Cytotoxicity against human RPMI-8226 cells assessed as inhibition of cell growth incubated for 72 hrs by MTT reagent based colorimetric assay; format: functional; details: RPMI-8226, 72 h
MCF7 [7] = assay: Cytotoxicity against human MCF7 cells assessed as inhibition of cell growth incubated for 72 hrs by MTT reagent based colorimetric assay; format: functional; details: MCF7, 72 h
HepG2 [8] = assay: Cytotoxicity against human HepG2 cells assessed as inhibition of cell growth incubated for 72 hrs by MTT reagent based colorimetric assay; format: functional; details: HepG2, 72 h
HL-60 [9] = assay: Cytotoxicity against human HL-60 cells assessed as reduction in cell growth incubated for 48 hrs by MTT assay; format: functional, cell-based; details: HL-60, 48 h
MCF7 [10] = assay: Antiproliferative activity against human MCF7 cells assessed as inhibition of cell growth incubated for 72 hrs by MTS assay; format: functional, cell-based; details: MCF7, 72 h
[11] = tested on: KATO III stomach cancer cell line; assay: Antiproliferative activity against human KATO III stomach cancer cell line assessed as inhibition of cell growth incubated for 72 hrs by MTS assay; format: functional, cell-based
MCF7 [12] = assay: Cytotoxicity against human MCF7 cells incubated for 48 hrs by MTT assay; format: functional, cell-based; details: MCF7, 48 h
DU-145 = assay: Cytotoxicity against human DU-145 cells incubated for 48 hrs by MTT assay; format: functional, cell-based; details: DU-145, 48 h
MCF7 [13] = assay: Cytotoxicity against human MCF7 cells incubated for 72 hrs; format: functional, cell-based; details: MCF7, 72 h
Jurkat = assay: Cytotoxicity against human Jurkat cells incubated for 48 hrs by MTT reagent based spectrophotometric analysis; format: functional, cell-based
HeLa = assay: Cytotoxicity against human HeLa cells incubated for 48 hrs by MTT reagent based spectrophotometric analysis; format: functional, cell-based
[14] = Antiproliferative activity against human TT cells assessed as inhibition of cell growth incubated for 72 hrs by WST-1 assay; format: functional, cell-based
U-937 = assay: Cytotoxicity against human U-937 cells assessed as reduction in cell viability incubated for 72 hrs by resazurin assay; format: functional, cell-based; details: U-937, 72 h

## CC1(O)CCC(C#CC2=C(C#CC3CCC(C)(O)CC3)C(=O)c3ccccc3C2=O)CC1 (centres undefined)
[1]
  IC50: 2.98 µM
OVCAR-8
  IC50: 2.28 µM
PC-3M
  IC50: 4.28 µM

## CC(C)=CC[C@@H](OC(=O)CCc1cc2ccccc2[nH]1)C1=CC(=O)c2c(O)ccc(O)c2C1=O
[2]
  IC50: 0.005 µM

## CCCCCC(=O)C1=C(/C(C(=O)OC)=C(\C)NC(Cc2c[nH]c3ccccc23)C(=O)OC)C(=O)c2ccccc2C1=O (centres undefined)
AGS
  IC50: 9.3 µM
SK-MES-1
  IC50: 5.5 µM
J82
  IC50: 4.5 µM

## O=C1C=C(C(O)C[N+](=O)[O-])C(=O)c2c(O)ccc(O)c21 (centres undefined)
A549
  IC50: 1.05 µM
PC-3
  IC50: 0.09 µM
A2780
  IC50: 0.11 µM
HL-60 [3]
  IC50: 0.14 µM

## CC(C)=CCC/C(C)=C/CC/C(C)=C/CC1=C(O)C(=O)c2ccccc2C1=O
HL-60 [4]
  IC50: 5.41 µM
HT-29
  IC50: 1.99 µM
HepG2 [5]
  IC50: 14 µM
MCF7 [6]
  IC50: 47 µM
SW480
  IC50: 2.02 µM

## C[P+](C1=C([O-])C(=O)c2c(F)c(F)c(F)c(F)c2C1=O)(c1ccccc1)c1cc(F)cc(F)c1 (centres undefined)
RPMI-8226
  IC50: 6.4 µM
MCF7 [7]
  IC50: 4.6 µM
HepG2 [8]
  IC50: 7.1 µM

## CC(=O)N[C@H]1[C@H](OC2=C(CC=C(C)C)C(=O)c3ccccc3C2=O)O[C@H](COC(C)=O)[C@@H](OC(C)=O)[C@@H]1OC(C)=O
HL-60 [9]
  IC50: 5.3 µM

## CC(C)=CCCc1ccc2c(c1)C(=O)c1c(cnn1CCO)C2=O
MCF7 [10]
  IC50: 27.5 µM
[11]
  IC50: 25.5 µM

## COc1cc(N)cc(OC)c1C1=C(C(C)=O)C(=O)c2ccccc2C1=O
MCF7 [12]
  IC50: 21.2 µM
DU-145
  IC50: 12.3 µM

## CCC/C=C/C(=O)C1=C(OC)C(=O)c2cc(OC)c(OC)cc2C1=O
MCF7 [13]
  IC50: 15 µM

## COc1ccc(NC2=CC(=O)c3cc4c(cc3C2=O)CCCC4(C)C)cc1
Jurkat
  IC50: 1.4 µM
HeLa
  IC50: 0.01 µM

## CC(C)=CC[C@@H](OC(=O)C=C(C)C)C1=CC(=O)c2c(O)ccc(O)c2C1=O [DIMETHYLACRYLSHIKONIN]
[14]
  IC50: 1.2 µM

## CC(C)=CC[C@@H](OC(=O)C(C)C)C1=CC(=O)c2c(O)ccc(O)c2C1=O [ISOBUTYLSHIKONIN]
U-937
  IC50: 0.05 µM
